Tested on: cabbage root fly
Assay: Swede field trials in Norway, cabbage root fly damage
Assay type: in vivo
Protocol: An extensive program of non-public field trials, which included five crops of swede were carried out. The field trials design was based around multiple applications of either ECOguard® liquid (garlic juice concentrate) or granules (wood flour granules impregnated with the garlic juice concentrate) and in four out of the five swede trials was referenced against Dimethoate as a standard.

CNC(=O)CSP(=S)(OC)OC [Dimethoate]
mean saleable yield (cat 1 + 2) (Ga-Fa): 7.27 kg/sample
mean saleable yield (cat 1 + 2) (Mid-Troms): 5.84 kg/sample
mean saleable yield (cat 1 + 2) (Sor Ost): 22.16 kg/sample
mean saleable yield (cat 1 + 2) (Toten): 11.95 kg/sample
Difference of Means, trt=1 (control) subtracted (in vivo): −0.3100
cabbage root fly damage versus control (in vivo): significantly reduced damage
root damage index (RDI), % Change (in vivo): −5.8%
root damage index (RDI), Mean (in vivo): 43.90
mean saleable yield (cat 1 + 2), Mean (mean of four sites): 11.95 kg/sample
mean saleable yield, % Change (mean of four sites versus control): +8%

— patent US20080194666A1, “Combination Treatment Methods” (MEDICAL RESEARCH COUNCIL, priority 2005, published 2008)
